Test results published in US12570612B2, “Substituted nitrogen heterocyclic compound and anesthetic effect thereof” (priority 2019, dated 2026).

Columns and labels:
Sprague-Dawley rats = assay: animal or person; conditions: for ED50: LORR in rats, tail vein, brackets = 95% confidence limit; for Approximate therapeutic index / Minimal lethal dose: rats
Description: Adult male Sprague-Dawley rats (250-300 g) were selected for the experiment. […] The anesthesia effects of the compounds were assessed in rats using a LORR assay and a period >30 s was considered as an indicator of general anesthesia.

H295R cell line [1] = assay: Adrenocortical function in vitro test: secretion of cortisol and corticosterone, Group B compounds; assay type: cell-based; conditions: H295R cells; for EC50: 0.1-10000 nM, HPLC-MS/MS
H295R cell line [2] = assay: Adrenocortical function in vitro test: secretion of cortisol and corticosterone, Group A compounds; assay type: cell-based; conditions: H295 cells; for EC50: 0.1-10000 nM, HPLC-MS/MS
[3] = Homo sapiens, NCI-H295R, read-out: EC50 (Corticosterone)
[4] = Homo sapiens, NCI-H295R, read-out: EC50 (Cortisol)
[5] = read-out: EC50 (Corticosterone)

| SMILES | ED50 (Sprague-Dawley rats; Rattus norvegicus) [mg/kg] | Approximate therapeutic index (Sprague-Dawley rats) | Minimal lethal dose (Sprague-Dawley rats) [mg/kg] | Corticosterone as an indicator to determine the presence of inhibition (H295R cell line [1]) | Cortisol as an indicator to determine the presence of inhibition (H295R cell line [1]) | EC50 (H295R cell line [1]; [3]) [nM] | EC50 (H295R cell line [1]; [4]) [nM] | ED50 (Sprague-Dawley rats) | EC50 (H295R cell line [1]; [5]) [nM] | EC50 (H295R cell line [1]; read-out: EC50 (Cortisol)) [nM] | Corticosterone as an indicator to determine the presence of inhibition (H295R cell line [2]) | Cortisol as an indicator to determine the presence of inhibition (H295R cell line [2]) | EC50 (H295R cell line [2]; [5]) [nM] | EC50 (H295R cell line [2]; read-out: EC50 (Cortisol)) [nM] |
| --- | --- | --- | --- | --- | --- | --- | --- | --- | --- | --- | --- | --- | --- | --- |
| CCOC(=O)c1c(Cl)nnn1[C@H](C)c1ccccc1 [Compound B65] | 0.5 to 1 | >13 | >9 | 0 | 0 | > 1000 | > 1000 |  |  |  |  |  |  |  |
| C[C@H](c1ccccc1)n1nnc(Br)c1C(=O)OC(C)(C)C [Compound B110] |  | >7 | >16 | 0 | 0 |  |  | D (D indicates that the measured ED50 is in the range of 2.00-10.00 mg/kg (excluding 2.00 mg/kg, including 10.00 mg/kg)) | > 3000 | > 3000 |  |  |  |  |
| C=C=CC1(OC(=O)c2c(F)nnn2[C@H](C)c2ccccc2)COC1 [Compound B35] | 0.04 to 0.5 | >29 | >8 | 0 | 0 | > 1000 | > 1000 |  |  |  |  |  |  |  |
| COC(=O)C1(OC(=O)c2c(Br)nnn2[C@H](C)c2ccccc2)CC1 [Compound B121] | 2 to 10 | >3 | >20 | 0 | 0 | > 1000 | > 1000 |  |  |  |  |  |  |  |
| C[C@H](c1ccccc1)n1nnc(Br)c1C(=O)OC1CC1 [Compound B116] | 1 to 2 | >9 | >12 | 0 | 0 | > 3000 | > 3000 |  |  |  |  |  |  |  |
| C[C@H](c1ccccc1)n1cncc1C(=O)O [Etomidate acid, etomidate acid, reference compound] |  |  |  | 0 | 0 |  |  |  | > 10000 | > 10000 | 0 | 0 | > 10000 | > 10000 |
| CCOC(=O)c1c(Br)nnn1[C@H](C)c1ccccc1 [Compound B99] |  | >16 | >8 | 0 | 0 |  |  | A (A indicates that the measured ED50 is in the range of 0.04-0.50 mg/kg (including 0.04 and 0.50 mg/kg)) | > 3000 | > 3000 |  |  |  |  |
| C[C@H](c1ccccc1)n1nncc1C(=O)OC1CC1 [Compound B18] | 1 to 2 | >12 | >14 | 0 | 0 | > 100 | > 100 |  |  |  |  |  |  |  |
| C=CCOC(=O)c1cnnn1[C@H](C)c1ccccc1 [Compound B10] | 0.5 to 1 | >16 | >11 | 0 | 0 | > 100 | > 100 |  |  |  |  |  |  |  |
| C=CCOC(=O)c1c(I)nnn1[C@H](C)c1ccccc1 [Compound B136] |  | >6 | >18 | 0 | 0 |  |  | D (D indicates that the measured ED50 is in the range of 2.00-10.00 mg/kg (excluding 2.00 mg/kg, including 10.00 mg/kg)) | > 1000 | > 1000 |  |  |  |  |
| C[C@H](c1ccccc1)n1nnc(I)c1C(=O)OC1CCC1 [Compound B132] | 0.5 to 1 | >16 | >12 | 0 | 0 | > 1000 | > 1000 |  |  |  |  |  |  |  |
| C[C@H](c1ccccc1)n1nnc(Cl)c1C(=O)OC1CCC1 [Compound B70] |  | >2 | >15 | 0 | 0 |  |  | D (D indicates that the measured ED50 is in the range of 2.00-10.00 mg/kg (excluding 2.00 mg/kg, including 10.00 mg/kg)) | > 1000 | > 1000 |  |  |  |  |
| COC(=O)C1=C(OC(=O)c2c(F)nnn2[C@H](C)c2ccccc2)CCC1 [Compound B36] | 0.5 to 1 | >7 | >5 | 0 | 0 | > 1000 | > 1000 |  |  |  |  |  |  |  |
| COC(=O)C1=C(OC(=O)c2cnnn2[C@H](C)c2ccccc2)CCCC1 [Compound B30] | 0.5 to 1 | >10 | >10 | 0 | 0 | > 1000 | > 1000 |  |  |  |  |  |  |  |
| CCOC(=O)c1c(C(F)(F)F)nnn1[C@H](C)c1ccccc1 [Compound B145] | 2 to 10 | >4 | >18 | 0 | 0 | > 3000 | > 3000 |  |  |  |  |  |  |  |
| C[C@H](c1ccccc1)n1nnc(I)c1C(=O)OC1CC1 [Compound B144] | 10 to 20 | >2 | >24 | 0 | 0 | > 1000 | > 1000 |  |  |  |  |  |  |  |
| CC(=O)C1=C(OC(=O)c2cnnn2[C@H](C)c2ccccc2)CCCC1 [Compound B15] | 0.5 to 1 | >9 | >9 | 0 | 0 | > 1000 | > 1000 |  |  |  |  |  |  |  |
| CCOC(=O)c1c(I)nnn1[C@H](C)c1ccccc1 [Compound B127] | 0.5 to 1 | >23 | >16 | 0 | 0 | > 3000 | > 3000 |  |  |  |  |  |  |  |
| CC(C)OC(=O)c1c(Br)nnn1[C@H](C)c1ccccc1 [Compound B115] | 0.5 to 1 | >25 | >18 | 0 | 0 | > 3000 | > 3000 |  |  |  |  |  |  |  |
| CCOC(=O)c1cnnn1[C@H](C)c1ccccc1 [Compound B1] |  | >20 | >8 | 0 | 0 |  |  | A (A indicates that the measured ED50 is in the range of 0.04-0.50 mg/kg (including 0.04 and 0.50 mg/kg)) | > 100 | > 50 |  |  |  |  |
| C=C=CC1(OC(=O)c2cnnn2[C@H](C)c2ccccc2)CCCCC1 [Compound B11] |  | >8 | >6 | 0 | 0 |  |  | B (B indicates that the measured ED50 is in the range of 0.50-1.00 mg/kg (excluding 0.50 mg/kg, including 1.00 mg/kg)) | > 1000 | > 1000 |  |  |  |  |
| C=C=CC1(OC(=O)c2c(Br)nnn2[C@H](C)c2ccccc2)COC1 [Compound B101] |  | >7 | >13 | 0 | 0 |  |  | C (C indicates that the measured ED50 is in the range of 1.00-2.00 mg/kg (excluding 1.00 mg/kg, including 2.00 mg/kg)) | > 1000 | > 1000 |  |  |  |  |
| C[C@H](c1ccccc1)n1nnc(I)c1C(=O)OC1(C)COC1 [Compound B140] | 10 to 20 | >2 | >30 | 0 | 0 | > 1000 | > 1000 |  |  |  |  |  |  |  |
| C=CCOC(=O)c1c(Br)nnn1[C@H](C)c1ccccc1 [Compound B108] |  | >20 | >14 | 0 | 0 |  |  | B (B indicates that the measured ED50 is in the range of 0.50-1.00 mg/kg (excluding 0.50 mg/kg, including 1.00 mg/kg)) | > 3000 | > 3000 |  |  |  |  |
| C[C@H](c1ccccc1)n1nncc1C(=O)OCC1CC1 [Compound B7] | 0.5 to 1 | >31 | >24 | 0 | 0 | > 100 | > 100 |  |  |  |  |  |  |  |
